Tests used:
[1] = system: BUD-8 human skin fibroblast cells; assay: BUD-8 human cell line fibroblast proliferation assay; assay type: cell-based; conditions: estimated IC50, BUD-8 cells, 3 days, MTT
Source text: ii BUD-8 human cell line fibroblast proliferation assay.
The MLR assay measures the effects of a study compound on the activation and antigen presentation of T-lymphocytes, therefore determining immunomodulatory properties. The mouse spleen cell mitogen-induced blastogenesis and the BUD-8 human fibroblast proliferation assays measure the effects of the compounds of the present invention on cellular proliferation of cells involved in the pathogenesis of autoimmune diseases. These two assays are appropriate as screens to ascertain anti-inflammatory and/or autoimmune beneficial activity and are art accepted for such purposes.
The skin cell fibroblast line, BUD-8, was originally derived from the normal skin of a person and can now be obtained from the American Type Culture Collection, Rockville, Md. The concentration of the compounds which were used in this assay were: 1, 10, 30, 100, and 300 μM. The vehicle was used as the negative control. Test compounds were prepared in DMSO at a stock concentration of 300 mM. Appropriate dilutions were made in culture medium.
In this assay BUD-8 cells were collected, counted, and diluted to 2×10^4 cells/ml. 0.1 ml was plated per well to give 2×10^3 cells/well. The compounds of the present invention were diluted in culture medium to the appropriate concentrations. Aliquates of 100 μl were distributed to triplicate wells. Control wells with vehicle and wells with media were also run. After a three day incubation at 37° C. with 5% carbon dioxide, proliferation was measured by adding 20 μl of MTT (10 mg/ml in PBS) (3-[4,5-dimethyl thiazol-2-yl]-2,5-diphenyl-tetrazolium bromide) to each well. Plates were incubated for 4 hours at 37° C., after which 180 μl of 10% SDS in PBS were added. After an overnight incubation, the optical density (OD) of each well was read using a Molecular Devices microplate reader at 570-650 nm.
Duplicate cultures were also set up to measure viability. After 3 days of incubation, supernatants were assayed for lactate dehydrogenase (LDH) activity to determine the viability of the cells, which is an indication of the toxicity of the test article on the BUD-8 cells. 0.1 ml of supernatent was mixed with 0.1 ml of the LDH substrate mixture which contains 5.4×10^-2 M L(+) lactate, 6.6×10^-4 M 2-p-iodophenyl-3-p-nitrophenyl tetrazolium chloride, 2.8×10^-4 M phenazine methosulfate, 1.3×10^-3 M NAD, and 0.2M Tris buffer. pH 8.2. Plates were read immediately for 5 minutes at 490 nm using a Molecular Devices microplate reader.
The mean for each test article treated group was determined and compared to the mean of the control group. The percent change from the control was calculated, and the IC50 estimated. The criteria used to establish activity levels were:
Sixteen (16) test articles were assayed for their ability to inhibit fibroblast proliferation. The test article were added to BUD-8 cell cultures to give final concentrations of 1, 10, 30, 100, and 300 μM. The proliferation observed in the test article treated wells were compared to the DMSO control wells.

[2] = system: various tumor cell lines (leukemia, melanoma, lung cancer, colon cancer, renal cancer, ovarian cancer, brain cancer); assay: Tumor cell line growth inhibition (average over lines of seven cancer types); assay type: cell-based; conditions: Log 10 values; average GI50 over tumor cell lines from seven cancer types; read-out: GI (μM) Log 10 values (Average GI50) (converted)
Description: The compounds of the present invention were also tested against various tumor cell lines, derived from seven cancer types. These include leukemia, melanoma, lung cancer, colon cancer, renal cancer, ovarian cancer, and brain cancer. Most of the compounds have shown significant activity in various screens, particularly against colon cancer and melanoma.

[3] = Homo sapiens, Skin fibroblast, 72 h

Work on `CCCCCCCCCOCCCO[C@H]1O[C@H]([C@H](O)CN2CCCC2)[C@@H]2OC(C)(C)O[C@H]12` [Compound 3, n-Nonyloxypropyl 2,3-O-(1-methylethylidene)-6-deoxy-pyrrolidinyl-α-D-mannofuranoside] yielded an IC50 [1, 3] of 18 µM and a GI50 [2] of 9.12 µM.

`CCCCCCCCCOCCCO[C@H]1O[C@H]([C@H](O)CN2CCCCC2)[C@@H]2OC(C)(C)O[C@H]12` [Compound 4, n-Nonyloxypropyl 2,3-O-(1-methylethylidene)-6-deoxy-6-piperidinyl-α-D-mannofuranoside] gave an IC50 [1, 3] of 35 µM.

With `CCCCCCCCCOCCCO[C@H]1O[C@H]([C@H](O)CN2CCOCC2)[C@@H]2OC(C)(C)O[C@H]12` [Compound 5, n-Nonyloxypropyl 2,3-O-(1-methylethylidene)-6-deoxy-6-morpholinyl-α-D-mannofuranoside] the IC50 [1, 3] was greater than 200 µM.

`CCCCCCCCCOCCCO[C@H]1O[C@H]([C@H](O)CN2CCCCCC2)[C@@H]2OC(C)(C)O[C@H]12` [Compound 6, n-Nonyloxypropyl 2,3-O-(1-methylethylidene)-6-deoxy-6-hexamethyleneimino-α-D-mannofuranoside] was tested, and the IC50 [1, 3] was 38 µM.

`CCCCCCCCCOCCCO[C@H]1O[C@H]([C@H](O)CNCCCCCCC)[C@@H]2OC(C)(C)O[C@H]12` [Compound 8, n-Nonyloxypropyl 2,3-(1-methylethylidene)-6-deoxy-6-aminoheptyl-α-D-mannofuranoside] was tested, and the IC50 [1, 3] was 16 µM and the GI50 [2] was 2.29 µM.

`CCCCCCCCCOCCCO[C@H]1O[C@H]([C@@H](C)OCCCN(C)C)[C@@H]2OC(C)(C)O[C@H]12` [Compound 10, n-Nonyloxypropyl 2,3-O-(1-methylethylidene)-6-deoxy-5-O-(N,N-dimethylaminopropyl)-α-D-mannofuranoside] gave an IC50 [1, 3] of 17 µM and a GI50 [2] of 11.5 µM.

With `CCCCCCCCCOCCCO[C@H]1O[C@H]([C@@H](C)OCCN2CCCC2)[C@@H]2OC(C)(C)O[C@H]12` [Compound 12, n-Nonyloxypropyl 2,3-O-(1-methylethylidene)-6-deoxy-5-O-(N'-ethylpyrrolidinyl)-α-D-mannofuranoside] the IC50 [1, 3] was 42 µM.

In the case of `CCCCCCCCCOCCCO[C@H]1O[C@H]([C@H](C)N2CCCC2)[C@@H]2OC(C)(C)O[C@H]12` [Compound 15, n-Nonyloxypropyl 5,6-dideoxy-2,3-O-(1-methylethylidene)-5-pyrrolidinyl-β-L-gulofuranoside], the IC50 [1, 3] is reported as 170 µM.

`CC1(C)O[C@@H]2[C@H](O1)[C@@H](OCCCc1ccccc1)O[C@@H]2[C@H](O)CN1CCCC1` [Compound 20, Phenylpropyl 6-deoxy 2,3-O-(1-methylethylidene)-6-pyrrolidinyl-α-D-mannofuranoside] was tested, and the IC50 [1, 3] was greater than 300 µM and the GI50 [2] was 87.1 µM.

Work on `CCCCCCCNC[C@@H](O)[C@H]1O[C@H](OCCCc2ccccc2)[C@H]2OC(C)(C)O[C@H]21` [Compound 21, Phenylpropyl 6-deoxy 2,3-O-(1-methylethylidene)-6-heptylamino-α-D-mannofuranoside] yielded an IC50 [1, 3] of 19 µM and a GI50 [2] of 7.41 µM.

With `CC1(C)O[C@@H]2[C@H](O1)[C@@H](OCCCc1ccccc1)O[C@@H]2[C@H](O)CNCCCN1CCCC1` [Compound 22, Phenylpropyl 6-deoxy 2,3-O-(1-methylethylidene)-6-aminopropylpyrrolidinyl-α-D-mannofuranoside] the IC50 [1, 3] was 16 µM.

In the case of `C[C@@H]([C@H]1O[C@H](OCCCc2ccccc2)[C@H]2OC(C)(C)O[C@H]21)N1CCCC1` [Compound 24, Phenylpropyl 5,6-dideoxy 2,3-O-(1-methylethylidene)-5-pyrrolidinyl-β-L-gulofuranoside], the IC50 [1, 3] is reported as 225 µM and the GI50 [2] is reported as 95.5 µM.

`C[C@@H](OCCCN(C)C)[C@H]1O[C@H](OCCCc2ccccc2)[C@H]2OC(C)(C)O[C@H]21` [Compound 26, Phenylpropyl 6-deoxy 2,3-O-(1-methylethylidene)-5-O-3'-(N'N'-dimethylamino-n-propyl)-α-D-mannofuranoside] was tested, and the IC50 [1, 3] was 65 µM and the GI50 [2] was 58.9 µM.

`C[C@@H](OCCN1CCCC1)[C@H]1O[C@H](OCCCc2ccccc2)[C@H]2OC(C)(C)O[C@H]21` [Compound 27, Phenylpropyl 6-deoxy 2,3-O-(1-methylethylidene)-5-O-(N'-ethylpyrrolidinyl)-α-D-mannofuranoside] gave an IC50 [1, 3] of 148 µM.

`CC1(C)O[C@@H]2[C@H](O1)[C@@H](OCCCCN1CCCC1)O[C@@H]2[C@H](O)CO` [Compound 29, 4'-(1-Pyrrolidinyl)butyl 2,3-O-(1-methylethylidene)-α-D-mannofuranoside] gave an IC50 [1, 3] of 190 µM.

For “n-Nonyloxypropyl 2,3-O-(1-methylethylidene)-6-deoxy-6-aminothylpyrrolidinyl-α-D-mannofuranoside [Compound 7]”, the IC50 [1] was 105 µM.

— US5360794A, “Disubstituted and deoxy disubstituted derivatives of α-D-mannofuranosides and β-L-gulofuranosides having anti-inflammatory and anti-proliferative activity” (Medicarb Inc., priority 1992, dated 1994)
